Values after ≈ are worked out from the molar mass of the structure shown. Structures can show the parent of a compound that is named as a salt. Where two headings read alike, the source gives them in different places. Marks after values point to notes of the source that are not given here.
What was measured:
[1] = Solubility in milk related vehicles, previous study (Li et al., 2022); format: physicochemical; settings: RT; data ref 6
[2] = cited from earlier work; for Solubility in Water at 25°C: descriptions and ranges based on USP definitions
[3] = cited from earlier work
[4] = test system: plasma protein; settings: cited from earlier work
[5] = cited from earlier work; remark: listed apart in the source
[6] = Solubility assessment in milk vehicles and 10 mM sodium phosphate buffer pH 6.8, HPLC analysis; format: physicochemical; settings: for solubility at 60 min: thermodynamic from solid; for USP solubility classification: across tested media
Method: Solubility assessment was performed in all milk vehicles listed above. A 10 mM sodium phosphate buffer pH 6.8 was also included as a control. For each solubility sample, an excess amount of drug powder was weighed in a 20-mL glass vial. A suitable volume of the vehicle, pre-equilibrated to the desired temperature, was added to the drug powder. The samples were stirred for 60 minutes at 38°C or 20°–25°C [room temperature (RT)] prior to processing. The temperature of 38°C reflects the rectal temperature the healthy adult cow, 38°C [17].
Upon completion of this portion of the test procedure, approximately 2 mL of the solubility sample was passed through the Phenex-GF 1.2 μm filter to remove the excess drug solid. The filtration and solvent extraction steps were carried out immediately for each sample after the solubility testing was completed. All supplies used in the filtration were pre-equilibrated at the corresponding temperature. […] An aliquot of 0.5 mL filtrate was accurately transferred to a microcentrifuge tube followed by the addition of 1 mL extraction solvent. The extraction solvent was 0.1% TFA in acetonitrile (mobile phase channel B). The mixture was then centrifuged at 10,000 rpm, and about 1 mL of the supernatant was passed through a Phenex-RC 0.45 μm filter. The filtrate was collected in an HPLC autosampler vial and analyzed by the HPLC method described below.
A gradient HPLC method, described in Table 5, was used to analyze the concentration of all drug solubility samples after treatment.

[7] = parameters: method as in earlier work; settings: cited from earlier work
[8] = room temperature, expressed as free form of cephapirin

For `C[C@@H]1C[C@H]2[C@@H]3CCC4=CC(=O)C=C[C@]4(C)[C@@]3(F)[C@@H](O)C[C@]2(C)[C@@]1(O)C(=O)CO` [Dexamethasone], the “Ratio of solubility, Reconstituted whole milk versus raw milk” value [1] was 1.16, the “Ratio of solubility, Skim milk versus raw milk” value [1] was 1.04 and the “Ratio of solubility, Whole milk versus raw milk” value [1] was 1.08. The “Ratio of solubility, pH 6.8 buffer versus raw milk” value [1] was 0.64, the “Solubility in Water at 25°C” value [2] was “Practically Insoluble (≤ 0.1 mg/mL)” and the pKa ([3]; in words) was “Non-ionizable”. The “Ionization state at pH 7” value [3] was “Neutral” and the “Plasma Protein Binding” value [4] was ~77%.

In the case of `C[C@]12C=CC(=O)C=C1CC[C@@H]1[C@@H]2[C@@H](O)C[C@@]2(C)[C@H]1CC[C@]2(O)C(=O)CO` [Prednisolone], the pKa ([3]; in words) is listed as “Non-ionizable”, the “Ionization state at pH 7” value [3] is listed as “Neutral” and the “Log P” value [5] is listed as ~ 1.6. The “Plasma Protein Binding” value [4] was 60–90%.

In the case of `CC(=O)Nc1ccc(O)cc1` [Acetaminophen], the “Ratio of solubility, Reconstituted whole milk versus raw milk” value [1] is reported as 1.01, the “Ratio of solubility, Skim milk versus raw milk” value [1] is reported as 1.08 and the “Ratio of solubility, Whole milk versus raw milk” value [1] is reported as 1.05. The “Ratio of solubility, pH 6.8 buffer versus raw milk” value [1] was 1.05, the “Solubility in Water at 25°C” value [2] was “Sparingly Soluble (10–33 mg/mL)” and the “Ionization state at pH 7” value [3] was “Neutral”. The “Plasma Protein Binding” value [4] was 20–25%.

For `CC(=O)OCC1=C(C(=O)O)N2C(=O)[C@@H](NC(=O)CSc3ccncc3)[C@H]2SC1` [Cephapirin Sodium, Cephapirin sodium], the solubility at 60 min ([6]; 10 mM sodium phosphate buffer, pH 6.8, aqueous buffer, room temperature, expressed as free form of cephapirin, read-out: Solubility, pH 6.8 buffer (control)) was > 200 mg/mL, the USP solubility classification [6] was “freely soluble” and the solubility at 60 min ([6]; bovine, 38 °C, plasma or biological fluid, reconstituted and raw milk, read-out: Solubility in reconstituted and raw milk) was > 500 mg/mL. For the same compound, the solubility at 60 min ([6]; bovine, milk vehicles (all tested media except the pH 6.8 buffer), plasma or biological fluid, all tested media with the exception of the pH 6.8 aqueous buffer, read-out: Solubility in the tested media) was > 350 mg/mL, the solubility at 60 min ([6]; bovine, raw milk, plasma or biological fluid, 38°C, expressed as free form of cephapirin, read-out: Solubility, Raw Milk) was > 500 mg/mL and the solubility at 60 min ([6]; bovine, raw milk, plasma or biological fluid, room temperature, expressed as free form of cephapirin, read-out: Solubility, Raw Milk) was > 350 mg/mL. For the same compound, the solubility at 60 min ([6]; bovine, reconstituted whole milk powder (Nestle), plasma or biological fluid, room temperature, expressed as free form of cephapirin, read-out: Solubility, Reconstituted Whole Milk Powder (Nestle)) was > 350 mg/mL, the solubility at 60 min ([6]; bovine, skim milk, plasma or biological fluid, room temperature, expressed as free form of cephapirin, read-out: Solubility, Skim Milk) was > 350 mg/mL and the solubility at 60 min ([6]; bovine, whole milk, plasma or biological fluid, room temperature, expressed as free form of cephapirin, read-out: Solubility, Whole Milk) was > 350 mg/mL. For the same compound, the solubility at 60 min ([6]; reconstituted whole milk powder (Nestle), plasma or biological fluid, 38°C, expressed as free form of cephapirin, read-out: Solubility, Reconstituted Whole Milk Powder (Nestle)) was > 500 mg/mL, the “Solubility in most organic solvents (descriptive)” value ([2]; most organic solvents) was “insoluble” and the “Solubility in water (descriptive)” value [2] was “very soluble”.

With `CC(=O)OCC1=C(C(=O)O)N2C(=O)[C@@H](NC(=O)CSc3ccncc3)[C@H]2SC1.CC(=O)OCC1=C(C(=O)O)N2C(=O)[C@@H](NC(=O)CSc3ccncc3)[C@H]2SC1.c1ccc(CNCCNCc2ccccc2)cc1` [Cephapirin Benzathine, Cephapirin benzathine] the “Solubility, Raw Milk” value ([6]; 38°C, expressed as free form of cephapirin) was 0.706 ± 0.021 mg/mL, the “Solubility, Reconstituted Whole Milk Powder (Nestle), Lot 1” value ([6]; 38°C, milk powder Lot 1, expressed as free form of cephapirin) was 0.740 ± 0.005 mg/mL and the “Solubility, Reconstituted Whole Milk Powder (Nestle), Lot 2” value ([6]; 38°C, milk powder Lot 2, expressed as free form of cephapirin) was 0.762 ± 0.028 mg/mL. The USP solubility classification [6] was “very slightly soluble”, the “Solubility, Raw Milk” value [6, 8] was 0.476 ± 0.003 mg/mL and the “Solubility, Reconstituted Whole Milk Powder (Nestle)” value [6, 8] was 0.508 ± 0.006 mg/mL. The “Solubility, Skim Milk” value [6, 8] was 0.460 ± 0.007 mg/mL, the “Solubility, Whole Milk” value [6, 8] was 0.509 ± 0.010 mg/mL and the “Solubility, pH 6.8 buffer (control)” value [6, 8] was 0.352 ± 0.003 mg/mL. The “Solubility in 0.1 N HCl (descriptive)” value ([2]; 0.1 N HCl) was “soluble”, the “Solubility in alcohol (descriptive)” value ([2]; alcohol) was “freely soluble” and the “Solubility in ether (descriptive)” value ([2]; ether) was “practically insoluble”. The “Solubility in toluene (descriptive)” value ([2]; toluene) was “practically insoluble” and the “Solubility in water (descriptive)” value [2] was “practically insoluble”.

In the case of `CN1C(C(=O)Nc2ccccn2)=C(O)c2ccccc2S1(=O)=O` [Piroxicam], the “Solubility in aqueous buffer” value ([7]; aqueous buffer) is given as 0.287 ± 0.019 mg/mL (≈ 866 µM), the “Solubility in skim milk” value ([7]; skim milk) is given as 0.262 ± 0.005 mg/mL (≈ 791 µM) and the “Solubility in Water at 25°C” value [2] is given as “Practically Insoluble (≤ 0.1 mg/mL)^c”. For the same compound, the “Log P” value ([5]; pH 6.5) was -1.33, the “Log P” value ([5]; pH 6.6) was 0.72 and the “Plasma Protein Binding” value [4] was ~ 99%.

In the case of `CN(C)CCC=C1c2ccccc2CCc2ccccc21` [Amitriptyline HCl], the “Solubility in Water at 25°C” value [2] is given as “Freely Soluble (100–1000 mg/mL)”, the pKa ([3]; base) is given as 9.45 (base) and the “Ionization state at pH 7” value [3] is given as “Positively charged”. For the same compound, the “Log P” value ([5]; free base) was 5.0, the “Log P” value ([5]; pH 7.4) was 3.0 and the “Plasma Protein Binding” value [4] was ~ 95%.

Reference: PMC10361461, “Evaluating the solubility of compounds intended for intramammary infusion based upon tests conducted across a range of milk matrices” (PLOS ONE, 2023)
